Measurements reported in PubChem BioAssay (NCI).
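Compound exposure: 48 hours, 5 concentrations, 96-well plates. TGI is the concentration that stops growth completely.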 Where a SMILES comes first, the peptide text is derived from it. The star is where a group is joined. Boc = CC(C)(C)OC(=O)*

What was measured:
Assay in all cases: NCI-60 cell line screen, 48 h
A549 NSCLC = test system: A549 NSCLC
HCC-2998 colon = test system: HCC-2998 colon
HOP-62 NSCLC = test system: HOP-62 NSCLC
HS 578T breast = test system: HS 578T breast
IGROV1 ovarian = test system: IGROV1 ovarian
M14 melanoma = test system: M14 melanoma
MDA-MB-231 breast = test system: MDA-MB-231 breast
MOLT-4 leukemia = test system: MOLT-4 leukemia
OVCAR-3 ovarian = test system: OVCAR-3 ovarian
OVCAR-5 ovarian = test system: OVCAR-5 ovarian
RXF 393 renal = test system: RXF 393 renal
SF-295 CNS = test system: SF-295 CNS
SK-MEL-28 melanoma = test system: SK-MEL-28 melanoma
SK-OV-3 ovarian = test system: SK-OV-3 ovarian
SNB-75 CNS = test system: SNB-75 CNS
SR leukemia = test system: SR leukemia
T-47D breast = test system: T-47D breast
SF-539 CNS = test system: SF-539 CNS
MDA-N = test system: MDA-N

Structure (SMILES)	TGI (A549 NSCLC)	TGI (HCC-2998 colon)	TGI (HOP-62 NSCLC)	TGI (HS 578T breast)	TGI (IGROV1 ovarian)	TGI (M14 melanoma)	TGI (MDA-MB-231 breast)	TGI (MOLT-4 leukemia)	TGI (OVCAR-3 ovarian)	TGI (OVCAR-5 ovarian)	TGI (RXF 393 renal)	TGI (SF-295 CNS)	TGI (SK-MEL-28 melanoma)	TGI (SK-OV-3 ovarian)	TGI (SNB-75 CNS)	TGI (SR leukemia)	TGI (T-47D breast)	TGI (SF-539 CNS)	TGI (MDA-N)
COc1cc(OC)cc(Oc2nc3ccccc3nc2C(=O)O)c1	> 100 µM	> 100 µM	> 100 µM	> 100 µM	> 100 µM	> 100 µM	> 100 µM	> 100 µM	> 100 µM	> 100 µM	> 100 µM	> 100 µM	> 100 µM	> 100 µM	> 100 µM	> 100 µM	> 100 µM	–	–
CCN(CC)CC(=O)Nc1c(C(N)=O)nnn1Cc1cc(Cl)c(C(=O)c2ccc(Cl)cc2)c(Cl)c1	79.6 µM	32.1 µM	34.2 µM	33 µM	74.4 µM	30.9 µM	34.8 µM	56 µM	31.7 µM	40.7 µM	23.8 µM	32.9 µM	33.3 µM	51.5 µM	59 µM	68.9 µM	61.9 µM	31.4 µM	–
CCOC(=O)c1c(N)nn2c1cc1cccccc12	> 100 µM	> 100 µM	> 100 µM	82.8 µM	94.8 µM	> 100 µM	> 100 µM	> 100 µM	> 100 µM	> 100 µM	> 100 µM	86.7 µM	83.3 µM	> 100 µM	–	–	64.4 µM	> 100 µM	> 100 µM
CCOP(C)(=O)C(Cc1c[nH]c2ccccc12)C(=O)O (centres undefined)	> 100 µM	> 100 µM	> 100 µM	–	> 100 µM	> 100 µM	> 100 µM	> 100 µM	> 100 µM	> 100 µM	–	> 100 µM	> 100 µM	> 100 µM	> 100 µM	> 100 µM	> 100 µM	> 100 µM	> 100 µM
CNC(=O)CN(CC(=O)NC)C(=O)NC	> 100 µM	> 100 µM	> 100 µM	–	> 100 µM	> 100 µM	–	> 100 µM	> 100 µM	> 100 µM	> 100 µM	> 100 µM	> 100 µM	> 100 µM	> 100 µM	> 100 µM	–	> 100 µM	–
C[C@H]1O[C@@H](c2c(O)ccc3ccccc23)C[C@@H](N(C)C)C1O (some centres undefined)	> 100 µM	> 100 µM	> 100 µM	> 100 µM	> 100 µM	> 100 µM	> 100 µM	–	> 100 µM	> 100 µM	77.3 µM	> 100 µM	> 100 µM	> 100 µM	> 100 µM	–	–	> 100 µM	> 100 µM
CCOc1ccc(N=NC2C(=O)N(C(=O)CC(=O)Nc3ccccc3OC)N=C2C)cc1 (centres undefined)	> 100 µM	> 60.3 µM	> 49.5 µM	> 100 µM	> 100 µM	> 100 µM	> 51.7 µM	> 100 µM	> 100 µM	> 100 µM	26.3 µM	> 53.8 µM	> 100 µM	> 87.4 µM	23.6 µM	–	> 100 µM	> 57.9 µM	6.14 µM
CCOC(=O)Cc1nnc2c(-c3ccccc3)nc3ccccc3n12	> 100 µM	64.8 µM	27.6 µM	–	> 100 µM	> 100 µM	45.3 µM	> 100 µM	51.9 µM	> 100 µM	36.4 µM	–	> 100 µM	67.6 µM	–	> 100 µM	–	> 100 µM	> 100 µM
CSC1=C(C(=O)Nc2ccc(Cl)cc2)C(N)=NC1=O	> 100 µM	> 100 µM	–	> 100 µM	> 100 µM	> 100 µM	> 100 µM	> 100 µM	> 100 µM	> 100 µM	> 100 µM	–	> 100 µM	> 100 µM	> 100 µM	> 100 µM	> 100 µM	> 100 µM	–
CC(=O)O[C@H]1C(=O)[C@@]2(C)[C@H]([C@H](OC(=O)c3ccccc3)[C@]3(O)C[C@H](OC(=O)[C@H](OC(=O)OCCC(O)CO)[C@@H](NC(=O)c4ccccc4)c4ccccc4)C(C)=C1C3(C)C)[C@]1(OC(C)=O)CO[C@@H]1C[C@@H]2O (some centres undefined)	> 100 µM	0.0471 µM	19.9 µM	–	34.7 µM	–	21.6 µM	24.9 µM	14.5 µM	43.5 µM	18.5 µM	0.187 µM	–	> 100 µM	1.28 µM	–	–	< 0.01 µM	–
CC(=O)C1C(=O)C(=O)N(c2cccc(C)c2C)C1=O (centres undefined)	> 100 µM	–	> 100 µM	–	> 100 µM	> 100 µM	> 100 µM	> 100 µM	> 100 µM	> 100 µM	–	> 100 µM	–	> 100 µM	> 100 µM	–	> 100 µM	> 100 µM	> 100 µM
C/C=C(C)/C=C/CC(C)CCC=C(C)C (centres undefined)	> 100 µM	–	–	–	> 100 µM	> 100 µM	> 100 µM	> 100 µM	> 100 µM	> 100 µM	> 100 µM	> 100 µM	> 100 µM	> 100 µM	> 100 µM	> 100 µM	–	> 100 µM	> 100 µM
CCN1CCC(O)(c2ccc(C)cc2)C(C(=O)c2ccc(C)cc2)C1 (centres undefined)	> 100 µM	> 100 µM	> 100 µM	–	> 58.9 µM	> 57.8 µM	–	> 71.5 µM	40.1 µM	47.4 µM	–	> 100 µM	56 µM	> 100 µM	> 100 µM	50.9 µM	–	> 59.1 µM	–
CC(=O)Oc1ccc2c(c1)Oc1cc(C(C)=O)ccc1C21OC(=O)c2ccccc21 (centres undefined)	> 100 µM	> 100 µM	> 100 µM	–	> 100 µM	> 100 µM	> 100 µM	> 100 µM	> 100 µM	> 100 µM	> 100 µM	> 100 µM	> 100 µM	> 100 µM	> 100 µM	–	> 100 µM	–	> 100 µM
CCOC(=O)/C(=C\c1ccc(O)c(OC)c1)C(=O)c1ccccc1	51.3 µM	38.1 µM	–	–	39 µM	> 48 µM	–	> 52.2 µM	54.3 µM	> 59.3 µM	57.8 µM	> 52.6 µM	27.7 µM	> 61.4 µM	89.5 µM	62.7 µM	–	28 µM	–
COc1c(C)c(C/C=C(\C)CCCCO[Si](C(C)C)(C(C)C)C(C)C)c(OC)c2ccccc12	> 100 µM	–	> 100 µM	> 100 µM	> 100 µM	> 100 µM	> 100 µM	> 100 µM	> 100 µM	> 100 µM	> 100 µM	> 100 µM	–	> 100 µM	> 100 µM	> 100 µM	–	> 100 µM	> 100 µM
C/C(=N\NS(=O)(=O)c1ccc(C)cc1)C(CN1CCOCC1)C(c1ccccc1)c1c(O)c2ccccc2oc1=O (centres undefined)	> 100 µM	–	> 100 µM	–	> 100 µM	> 100 µM	–	–	> 100 µM	> 100 µM	> 100 µM	> 100 µM	–	> 100 µM	> 100 µM	56.2 µM	–	> 100 µM	–
Cc1nc2c(n1CCO)C(=O)c1ccccc1C2=O	> 100 µM	> 100 µM	74.4 µM	–	84 µM	52.3 µM	–	> 100 µM	76.2 µM	–	> 100 µM	> 100 µM	> 100 µM	> 100 µM	> 100 µM	> 100 µM	–	88.9 µM	–
O=c1cc(-c2ccccc2)[nH]c2cc(F)c(F)cc12	> 31.5 µM	> 30.9 µM	> 100 µM	> 28.9 µM	> 54.1 µM	> 100 µM	> 77.2 µM	> 100 µM	43.7 µM	> 100 µM	0.616 µM	> 100 µM	> 100 µM	> 56.1 µM	90 µM	> 100 µM	–	2.33 µM	1.17 µM
Cc1cc(C)nc(NS(=O)(=O)c2ccc(Nc3nncc(=O)n3N)cc2)n1	> 100 µM	80.7 µM	34.7 µM	> 100 µM	33.1 µM	> 100 µM	–	48.6 µM	29.8 µM	37.2 µM	–	> 100 µM	74.6 µM	> 100 µM	–	42.4 µM	38.3 µM	> 100 µM	30 µM
CC(NC(=O)C(NC(=O)OC(C)(C)C)C(C)C)C(=O)N1CCCC1C(=O)NCC(=O)NC(C(=O)NCC(=O)O)C(C)C (centres undefined) (Boc-VAPGVG-OH; configuration not given here)	–	> 100 µM	> 100 µM	–	> 100 µM	> 100 µM	> 100 µM	> 100 µM	> 100 µM	> 100 µM	–	> 100 µM	> 100 µM	> 100 µM	> 100 µM	> 100 µM	> 100 µM	> 100 µM	> 100 µM
COc1cc(C2c3cc4c(cc3OC(NC3CCCCC3)C2C)OCO4)cc(OC)c1OC (centres undefined)	> 85.3 µM	4.22 µM	> 64.3 µM	58.3 µM	> 54 µM	36.6 µM	2.26 µM	> 39 µM	0.929 µM	> 100 µM	0.82 µM	0.577 µM	> 100 µM	15.3 µM	0.623 µM	–	66.7 µM	1.4 µM	–
C=CC(Cl)(CBr)CCC(Br)=C(C)C (centres undefined)	> 100 µM	44.5 µM	> 100 µM	76.2 µM	29.9 µM	> 100 µM	37.5 µM	> 100 µM	55.3 µM	61.2 µM	38.5 µM	> 100 µM	40.7 µM	–	91.4 µM	> 100 µM	–	44 µM	40.8 µM
CC1=NN(c2nc(N)nc(CCl)n2)CC1	> 100 µM	> 100 µM	29.4 µM	> 100 µM	25.9 µM	80.4 µM	> 100 µM	68.9 µM	35.3 µM	57.4 µM	> 100 µM	> 100 µM	56.4 µM	> 100 µM	74.1 µM	61.7 µM	> 100 µM	57.9 µM	–
Cc1ccc(S(=O)(=O)N2CCN(S(=O)(=O)c3ccc(C)cc3)Cc3ccccc3C2)cc1	> 100 µM	> 100 µM	51.5 µM	96.5 µM	> 100 µM	> 100 µM	> 100 µM	> 100 µM	> 100 µM	–	–	> 100 µM	> 100 µM	–	–	> 100 µM	> 100 µM	> 100 µM	–
Cc1nc(C)c(C(=O)NNC(=O)Cc2ccccc2)cc1C(=O)NNC(=O)Cc1ccccc1	> 100 µM	> 100 µM	> 100 µM	> 100 µM	> 100 µM	> 100 µM	> 100 µM	> 100 µM	> 100 µM	> 100 µM	> 100 µM	> 100 µM	–	> 100 µM	> 100 µM	–	> 100 µM	> 100 µM	> 100 µM
COc1ccc(C[C@@H]2Cc3cc(OC)c(OC)cc3CN2C)cc1	> 100 µM	> 100 µM	> 100 µM	–	–	> 100 µM	–	> 100 µM	> 100 µM	> 100 µM	–	> 100 µM	> 100 µM	–	> 100 µM	–	–	–	–
COc1ccc2cc(C(C)C(O)c3cc(F)c(F)c(F)c3F)ccc2c1 (centres undefined)	> 100 µM	> 100 µM	> 100 µM	–	> 100 µM	> 100 µM	> 100 µM	–	> 100 µM	> 100 µM	–	> 100 µM	> 100 µM	> 100 µM	43.6 µM	–	> 100 µM	–	> 100 µM
